Consider 3 compounds from publication PMC10838382 (Cancer Drug Resistance, 2024).

Like-named read-outs stand apart in the source and are kept apart here.

Assay [1] concerns PC-3M. As to the kind of experiment: 2D proliferation assay (CellTiter-Blue). Conditions: Homo sapiens, read-out: Relative ritonavir IC50.
Assay [2] concerns DU-145 cells. The following applies: NCI60 panel, read-out: IC50 value, anti-proliferative effect; cited from earlier work.
For assay [3], the system named is LXFA EKVX. As to the kind of experiment: cells. The following applies: Homo sapiens, read-out: Relative ritonavir IC50.
Assay [4] has as its system MAXFTN CAL-51. Description: cells. Conditions: Homo sapiens, CAL-51, read-out: Relative ritonavir IC50.
Assay [5] relates to PRXF DU-145. Description: 2D proliferation assay (CellTiter-Blue). Format: cell-based, human. The following applies: 2D proliferation assay. In general terms: The colour change of resazurin is a common sign of viable cells or microbes.
The test system of assay [6] is OVXF NCI-ADR-RES. As to the kind of experiment: cells. Conditions: Homo sapiens, read-out: Relative ritonavir IC50.
The test system of assay [7] is PC-3. Description: 2D proliferation assay (CellTiter-Blue). Format: cell-based. Conditions: Homo sapiens, read-out: Relative ritonavir IC50, PC-3.
Assay [8] relates to MAXFTN MCF 10A. As to the kind of experiment: cells. Conditions: Homo sapiens, read-out: Relative ritonavir IC50.
Assay [9] relates to PRXF 22Rv1. As to the kind of experiment: 2D proliferation assay (CellTiter-Blue). Format: cell-based. Conditions: Homo sapiens, read-out: Relative ritonavir IC50; PRXF 22Rv1; 2D proliferation assay.
Assay [10] has as its system OVXF 899. As to the kind of experiment: cells. Conditions: read-out: Relative ritonavir IC50.
For assay [11], the system named is MAXFLB MCF7. As to the kind of experiment: cells. Conditions: Homo sapiens, MCF7, read-out: Relative ritonavir IC50.
For assay [12], the system named is 15 tumor cell lines. Description: 2D proliferation assay (CellTiter-Blue), panel of 15 tumor cell lines. Conditions: at the concentration ranges tested; 2D proliferation assay.
For assay [13], the system named is LXFA 737. As to the kind of experiment: 2D proliferation assay (CellTiter-Blue). The following applies: read-out: Relative ritonavir IC50.
In assay [14] the test system is OVXF EFO-27. Description: 2D proliferation assay (CellTiter-Blue). The following applies: Homo sapiens, EFO-27, read-out: Relative ritonavir IC50.
Assay [15] relates to GXA NUGC-4. As to the kind of experiment: cells. The following applies: Homo sapiens, NUGC-4, read-out: Relative ritonavir IC50.
The subject of assay [16] is GXA 3011. Description: cells. The following applies: read-out: Relative ritonavir IC50.
In assay [17] the test system is DU-145. Conditions: read-out: IC50, single agent ritonavir; DU-145 proliferation assay; cited from earlier work.
In assay [18] the test system is MAXFTN MX1. As to the kind of experiment: 2D proliferation assay (CellTiter-Blue). Conditions: read-out: Relative ritonavir IC50.
Assay [19] deals with 22Rv1. As to the kind of experiment: 3D clonogenic assay (soft agar). Conditions: for IC50: Homo sapiens, 22Rv1, read-out: Cabazitaxel IC50, 22Rv1, 3D clonogenic assay.
The test system of assay [20] is DU-145. As to the kind of experiment: 3D clonogenic assay (soft agar). The following applies: for IC50: Homo sapiens, DU-145, read-out: Cabazitaxel IC50, DU-145, 3D clonogenic assay.
Assay [21] relates to DU-145DOC10. Description: 3D clonogenic assay (soft agar). The format is cell-based, human. The following applies: for Relative resistance: DU-145DOC10 vs DU-145; for IC50: Homo sapiens, DU-145DOC10.
Assay [22] relates to 22Rv1DOC8. As to the kind of experiment: 3D clonogenic assay (soft agar). The format is cell-based, human. Conditions: 3D clonogenic assay; for IC50: 22Rv1DOC8, read-out: Cabazitaxel IC50; for Relative resistance: 22Rv1DOC8 vs 22Rv1.

For `CC(C)c1nc(CN(C)C(=O)N[C@H](C(=O)N[C@@H](Cc2ccccc2)C[C@H](O)[C@H](Cc2ccccc2)NC(=O)OCc2cncs2)C(C)C)cs1` [Ritonavir], the IC50 in [1] is 23300 nM; in assay [2] it was greater than 20000 nM; in [3], greater than 30000 nM; in assay [4], greater than 30000 nM; in assay [5] (Homo sapiens, DU-145, read-out: Relative ritonavir IC50, PRXF DU-145), 16200 nM; in [5] (read-out: Relative ritonavir IC50, PRXF DU-145), 16300 nM. The IC50 is greater than 30000 nM in assay [6]; 21700 nM in assay [7]; greater than 30000 nM in assay [8]; 29300 nM in [9]; 25700 nM in assay [10]; greater than 30000 nM in assay [11]. Also, the IC50 in [13] was greater than 30000 nM; in assay [14], greater than 30000 nM; in [15], 1270 nM; in [16], greater than 30000 nM; in assay [17] it was 3000 nM; in assay [18], greater than 22600 nM. Also, the single agent activity result in assay [12] was “no considerable or only low activity”.
`COc1cc2c(cc1OC)CN(CCc1ccc(NC(=O)c3cccc4c(=O)c5cccc(OC)c5[nH]c34)cc1)CC2` [Elacridar]: the “effect of elacridar alone on parental cells” value in assay [19] (22Rv1 parental, data not shown) is on record as “no effect”; in assay [20] (DU-145 parental, data not shown), “no effect”.
Consider `CO[C@H]1C(=O)[C@]2(C)[C@@H](OC)C[C@H]3OC[C@@]3(OC(C)=O)[C@H]2[C@H](OC(=O)c2ccccc2)[C@]2(O)C[C@H](OC(=O)[C@H](O)[C@@H](NC(=O)OC(C)(C)C)c3ccccc3)C(C)=C1C2(C)C` [Cabazitaxel], for which the Relative resistance in [21] (cabazitaxel + ritonavir 10 µM, 3D clonogenic assay) is given as 1.0; in assay [21] (cabazitaxel without ritonavir, 3D clonogenic assay) it was 2.5; in assay [22] (cabazitaxel + ritonavir 10 µM) it was 7.4; in assay [22] (cabazitaxel + ritonavir 32 µM), 1.0; in assay [22] (cabazitaxel without ritonavir), 13.6. For the same compound, the IC50 is 0.6 nM in [21] (3D clonogenic assay, + ritonavir 10 µM, read-out: Cabazitaxel IC50); 1.5 nM in [21] (3D clonogenic assay, without ritonavir, read-out: Cabazitaxel IC50); 1.46 nM in assay [21] (cabazitaxel alone, Figure 7A, read-out: IC 50); 0.7 nM in assay [19] (+ ritonavir 10 µM); 0.7 nM in assay [19] (+ ritonavir 32 µM); 0.7 nM in assay [19] (without ritonavir). Moreover, the IC50 amounted to 0.7 nM in [22] (+ ritonavir 32 µM); 5.2 nM in assay [22] (Homo sapiens, + ritonavir 10 µM); 0.6 nM in assay [22] (Homo sapiens, + ritonavir 32 µM); 9.5 nM in assay [22] (Homo sapiens, without ritonavir); 0.3 nM in assay [20] (+ ritonavir 10 µM); 0.6 nM in assay [20] (without ritonavir).
